US6500817B1, “Thiazolyl urea derivatives and their utilization as antiviral agents” (Bayer Aktiengesellschaft, priority 1999, dated 2002)

melting point	SMILES
161 °C	CCCOc1ccc(NC(=O)N(C)c2nc(C)c(S(=O)(=O)NC)s2)cc1
158 °C	CCOc1ccc(NC(=O)N(C)c2nc(C)c(S(=O)(=O)NCc3cccnc3)s2)cc1
163 °C	CC(=O)N1CCc2c(cccc2Oc2ccc(NC(=O)N(C)c3nc(Cl)c(S(=O)(=O)N(C)C)s3)cc2)C1
206 °C	CNS(=O)(=O)c1sc(N(Cc2ccccn2)C(=O)Nc2ccc(N3CCOCC3)cc2)nc1C
197 °C	CCOc1ccc(NC(=O)N(Cc2nc3ccccc3[nH]2)c2nc(C)c(S(=O)(=O)NC)s2)cc1
188 °C	CCOc1ccc(NC(=O)N(CCn2ccnn2)c2nc(C)c(S(=O)(=O)NC)s2)cc1
198 °C	CCOc1ccc(NC(=O)N(Cc2ccncc2)c2nc(C)c(S(=O)(=O)NC)s2)cc1
212 °C	CCOc1ccc(NC(=O)N(Cc2cccnc2)c2nc(C)c(S(=O)(=O)NC)s2)cc1
161 °C	CCc1nc(N(CCCO)C(=O)Nc2ccc(N3CCCC3)cc2)sc1S(=O)(=O)NC
164 °C	CCOc1ccc(NC(=O)N(CCCCO)c2nc(C)c(S(=O)(=O)NC)s2)cc1
143 °C	CCCN(C(=O)Nc1ccc(COC)cc1)c1nc(C)c(S(=O)(=O)NCC(F)(F)F)s1
203 °C	CN(C(=O)Nc1ccc(N2CCOCC2)c(Cl)c1)c1nc(Cl)c(S(=O)(=O)N(C)C)s1
146 °C	CCCN(C(=O)Nc1ccc(-c2ccccc2)cc1)c1nc(C)c(S(=O)(=O)NCC(F)(F)F)s1
141 °C	CCOc1ccc(NC(=O)N(CCC2CCCN2C)c2nc(C)c(S(=O)(=O)NC)s2)cc1 (centres unmarked)
160 °C	CCCN(C(=O)Nc1ccc(-c2ccccc2)cc1)c1nc(C)c(S(=O)(=O)NCC)s1
148 °C	CCOc1ccc(NC(=O)N(CCCCNC(=O)OC(C)(C)C)c2nc(C)c(S(=O)(=O)NC)s2)cc1
208 °C	CCOc1ccc(NC(=O)N(CCN(C)C)c2nc(CC)c(S(=O)(=O)NC)s2)cc1
171 °C	CCOc1ccc(NC(=O)N(CCOC)c2nc(C)c(S(N)(=O)=O)s2)cc1
118 °C	CCOc1ccc(N(C)C(=O)Nc2nc(C)c(S(=O)(=O)N(C)C)s2)cc1
184 to 186 °C	Cc1nc(N(C)C(=O)Nc2ccc(-c3ncon3)cc2)sc1S(=O)(=O)N(C)C
194 °C	CSc1ccc(NC(=O)N(C)c2nc(Cl)c(S(=O)(=O)N(C)C)s2)cc1
195 °C (dec.)	Cc1nc(N(C)C(=O)Nc2ccc(N3CCCC3=O)cc2)sc1S(=O)(=O)N(C)C
192 to 194 °C	CNS(=O)(=O)c1sc(N(C)C(=O)Nc2ccc(C3=NOCCO3)cc2)nc1C

melting point	SMILES
> 225 °C	Cc1nc(N(C)C(=O)Nc2ccc(C3=NOCCO3)cc2)sc1S(=O)(=O)NC1CC1
185 °C	Cc1nc(N(C)C(=O)Nc2ccc(N3CC=CC3)cc2)sc1S(=O)(=O)N(C)C
136 to 137 °C	CCOC(=O)N1CC2CCC(c3ccc(NC(=O)N(C)c4nc(C)c(S(=O)(=O)N(C)C)s4)cc3)C2C1 (centres unmarked)
220 °C	COC(=O)c1ccc(NC(=O)N(C)C2=NC(Cl)C(S(=O)(=O)N(C)C)S2)cc1 (centres unmarked)
198 °C	Cc1nc(N(C)C(=O)Nc2ccc(N3CCCCC3)cc2)sc1S(=O)(=O)NC1CC1
178 °C	CNS(=O)(=O)c1sc(N(C)C(=O)Nc2ccc(-c3cccc(OC)c3)cc2)nc1C
> 250 °C	Cc1nc(NC(=O)Nc2ccc(-c3ccccc3)cc2)sc1S(=O)(=O)N(C)C
199 °C	CNS(=O)(=O)c1sc(NC(=O)Nc2ccc(-c3ccccc3)cc2)nc1C
204 °C	CCc1nc(N(C)C(=O)Nc2ccc(-c3ccccc3)cc2)sc1S(=O)(=O)NC
164 °C	CN(C(=O)Nc1ccc(OC(CF)CF)cc1)c1nc(Cl)c(S(=O)(=O)N(C)C)s1
188 °C	CNS(=O)(=O)c1sc(N(CCCN2CCN(C)CC2)C(=O)Nc2ccc(-c3ccccc3)cc2)nc1C
137 °C	CCCNS(=O)(=O)c1sc(N(CCC)C(=O)Nc2ccc(-c3ccccc3)cc2)nc1C
148 °C	CNS(=O)(=O)c1sc(N(CCCN2CCCC2=O)C(=O)Nc2ccc(-c3ccccc3)cc2)nc1C
178 °C	CNS(=O)(=O)c1sc(N(CC2CCCO2)C(=O)Nc2ccc(-c3ccccc3)cc2)nc1C (centres unmarked)
200 °C	CCCOc1ccc(NC(=O)N(C)C2=CC(C)=C(S(N)(=O)=O)C2)cc1
157 °C	COCCNS(=O)(=O)c1sc(N(C)C(=O)Nc2ccc(-c3ccccc3)cc2)nc1C
170 °C	CNS(=O)(=O)c1sc(N(CCOC)C(=O)Nc2ccc(-c3ccccc3)cc2)nc1C
160 °C	COCCN(C(=O)Nc1ccc(-c2ccccc2)cc1)c1nc(C)c(S(=O)(=O)NC2CC2)s1
156 °C	CCCN(C(=O)Nc1ccc(-c2ccccc2)cc1)c1nc(C)c(S(=O)(=O)NC)s1
209 °C	Cc1nc(N(C)C(=O)Nc2ccc(N3CCCC3)cc2)sc1S(N)(=O)=O
225 °C	Cc1nc(N(C)C(=O)Nc2ccc(N3CCOCC3)cc2)sc1S(N)(=O)=O
123 °C	Cc1nc(N(CCN(C)C)C(=O)Nc2ccc(N3CCOCC3)cc2)sc1S(N)(=O)=O
154 °C	CNS(=O)(=O)c1sc(N(CCN(C)C)C(=O)Nc2ccc(-c3ccccc3)cc2)nc1C

melting point	SMILES
186 °C	Cc1nc(N(Cc2ccncc2)C(=O)Nc2ccc(N3CCOCC3)cc2)sc1S(N)(=O)=O
138 °C	Cc1nc(N(CCN(C)C)C(=O)Nc2ccc(-c3ccccc3)cc2)sc1S(N)(=O)=O
188 °C	CNS(=O)(=O)c1sc(N(CCN(C)C)C(=O)Nc2ccc(N3CCCC3)cc2)nc1C
132 °C	CCCN(C(=O)Nc1ccc(OCC)cc1)c1nc(Cl)c(S(=O)(=O)N(C)C)s1
183 °C	CCOc1ccc(NC(=O)N(C)c2nc(Cl)c(S(=O)(=O)NC)s2)cc1
183 °C	CCOc1ccc(NC(=O)N(C)c2nc(Cl)c(S(=O)(=O)NC3CC3)s2)cc1
241 °C	CN(C(=O)Nc1ccc(N2CCOCC2)cc1)c1nc(Cl)c(S(=O)(=O)NC2CC2)s1
168 °C	CN(C(=O)Nc1ccc(OC(F)(F)C(F)F)cc1)c1nc(Cl)c(S(=O)(=O)N(C)C)s1
170 °C	CCOc1ccc(NC(=O)N(C)c2nc(Cl)c(S(=O)(=O)NCc3ccccc3)s2)cc1
183 °C	CCOc1ccc(NC(=O)N(C)c2nc(Cl)c(S(=O)(=O)NCN3CCCCC3)s2)cc1
201 °C	CN(C(=O)Nc1ccc(N2CCOCC2)cc1)c1nc(Cl)c(S(=O)(=O)NCc2ccccc2)s1
127 °C	CN(C(=O)Nc1ccc(Oc2ccccc2)cc1)c1nc(Cl)c(S(=O)(=O)N(C)C)s1
206 °C	Cc1nc(N(C)C(=O)Nc2ccc(N3CCOCC3)cc2)sc1S(=O)(=O)N1CCCCC1
168 °C	COC(=O)c1ccc(N(C)C(=O)N(C)c2nc(Cl)c(S(=O)(=O)N(C)C)s2)cc1
198 °C	Cc1nc(N(C)C(=O)Nc2ccc(N3CCOCC3)cc2)sc1S(=O)(=O)N(C)C1CC1
216 °C	Cc1nc(N(C)C(=O)Nc2ccc(N3CCOCC3)cc2)sc1S(=O)(=O)NCc1ccccc1
176 °C	CCOc1ccc(NC(=O)N(C)c2nc(CC)c(S(=O)(=O)N(C)C)s2)cc1
171 °C	CCOc1ccc(NC(=O)N(C)c2ncc(S(=O)(=O)NCc3ccccc3)s2)cc1
179 °C	CCOc1ccc(NC(=O)N(C)c2nc(C)c(S(=O)(=O)NC)s2)cc1
235 °C	Cc1nc(N(C)C(=O)Nc2ccc(N3CCOCC3)cc2)sc1S(=O)(=O)NC1CC1
204 °C	CCOc1ccc(NC(=O)N(CCN2CCOCC2)c2nc(C)c(S(=O)(=O)N(C)C)s2)cc1
163 °C	CCOc1ccc(NC(=O)N(CCN(C)C)c2nc(C)c(S(=O)(=O)N(C)C)s2)cc1
148 °C	Cc1nc(N(C)C(=O)Nc2ccc(N3CCOCC3)cc2)sc1S(=O)(=O)N(C)Cc1ccccn1

melting point	SMILES
187 °C	CCOc1ccc(NC(=O)N(Cc2ccccc2)c2nc(C)c(S(=O)(=O)N(C)C)s2)cc1
173 °C	CCOc1ccc(NC(=O)N(CC(C)C)c2nc(C)c(S(=O)(=O)N(C)C)s2)cc1
162 °C	CCOc1ccc(NC(=O)N(CCOC)c2nc(C)c(S(=O)(=O)N(C)C)s2)cc1
156 °C	CCOc1ccc(NC(=O)N(CCc2ccccc2)c2nc(C)c(S(=O)(=O)NCc3ccccc3)s2)cc1
163 °C	CCOc1ccc(NC(=O)N(C)c2nc(C)c(S(=O)(=O)N(C)CC)s2)cc1
168 °C	CCOc1ccc(NC(=O)N(C)c2nc(C)c(S(=O)(=O)NCC3CCCO3)s2)cc1 (centres unmarked)
160 °C	CCOc1ccc(NC(=O)N(CCO)c2nc(C)c(S(=O)(=O)N(C)C)s2)cc1
147 °C	CCOc1ccc(NC(=O)N(CCCO)c2nc(C)c(S(=O)(=O)N(C)C)s2)cc1
134 °C	CCOc1ccc(NC(=O)N(C)c2nc(C)c(S(=O)(=O)NCc3cccc(OC)c3)s2)cc1
154 °C	CCOc1ccc(NC(=O)N(C)c2nc(C)c(S(=O)(=O)NCc3ccccn3)s2)cc1
164 °C	CCOc1ccc(NC(=O)N(CCNC(=O)OC(C)(C)C)c2nc(C)c(S(=O)(=O)N(C)C)s2)cc1
130 °C	CCOc1ccc(NC(=O)N(CCCNC(=O)OC(C)(C)C)c2nc(C)c(S(=O)(=O)N(C)C)s2)cc1
177 °C	CCOc1ccc(NC(=O)OCCN(C(=O)Nc2ccc(OCC)cc2)c2nc(C)c(S(=O)(=O)N(C)C)s2)cc1
145 °C	CCCN(C(=O)Nc1ccc(OCC)cc1)c1nc(C)c(S(=O)(=O)NCc2ccccc2)s1
141 °C	CCCN(C(=O)Nc1ccc(OCC)cc1)c1nc(C)c(S(=O)(=O)NC2CC2)s1
164 °C	CCOc1ccc(NC(=O)N(C)c2nc(C)c(S(=O)(=O)NCC3CC3)s2)cc1
164 °C	CCOc1ccc(NC(=O)N(CCOC)c2nc(C)c(S(=O)(=O)NC3CC3)s2)cc1
198 °C	CCOc1ccc(NC(=O)Nc2nc(C)c(S(=O)(=O)N3CCCC3)s2)cc1
192 °C	CCOc1ccc(NC(=O)N(C)c2nc(C)c(S(=O)(=O)NC(C)C)s2)cc1
181 °C	CNS(=O)(=O)c1sc(N(CCCO)C(=O)Nc2ccc(N3CCOCC3)cc2)nc1C
